According to PubChem BioAssay AID463226 (The Scripps Research Institute Molecular Screening Center, 2010):
Activity calls are given as the source filed them. How the calls were made is not given here.

Biological target: Serine/threonine-protein phosphatase PP1-beta catalytic subunit (Homo sapiens) (UniProt P62140)
Experiment: PubChem AID 463226
Conditions: purified PP1, 33P-phosphohistone dephosphorylation, scintillation

Serine/threonine-protein phosphatase PP1-beta catalytic subunit (Homo sapiens), sequence (P62140 whole entry, looked up): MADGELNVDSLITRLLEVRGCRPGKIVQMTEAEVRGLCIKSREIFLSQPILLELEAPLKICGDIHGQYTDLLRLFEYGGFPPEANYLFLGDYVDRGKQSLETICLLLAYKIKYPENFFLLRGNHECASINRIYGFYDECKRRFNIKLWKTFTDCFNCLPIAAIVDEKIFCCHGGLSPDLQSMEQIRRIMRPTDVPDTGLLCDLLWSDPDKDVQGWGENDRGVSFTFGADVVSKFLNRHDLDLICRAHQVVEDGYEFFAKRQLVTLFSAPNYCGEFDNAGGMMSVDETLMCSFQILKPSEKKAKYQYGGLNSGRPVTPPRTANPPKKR

O=C(O)C1C2CCC(O2)C1C(=O)NC1CCCCC1 (configuration not stated)
IC50: 23.2 µM

O=C(O)c1n[nH]nc1-c1ccccc1
IC50: inactive
